# Results as given in paper PMC3138190 (Bioorganic & medicinal chemistry, 2011).
# Key:
# [1] = molecular target: T1, human DHFR (Homo sapiens, UniProt P00374); experiment: Dihydrofolate reductase; assay type: biochemical; details: for activity against DHFR in words: DHFR from different sources
# T1 sequence (P00374 1-187): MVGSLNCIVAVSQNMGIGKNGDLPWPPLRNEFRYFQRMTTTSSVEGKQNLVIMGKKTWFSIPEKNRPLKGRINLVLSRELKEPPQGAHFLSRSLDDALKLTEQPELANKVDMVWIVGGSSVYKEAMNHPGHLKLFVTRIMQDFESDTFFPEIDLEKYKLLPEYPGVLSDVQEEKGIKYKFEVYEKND
# [2] = molecular target: human TS (Homo sapiens, UniProt P04818); experiment: Thymidylate synthase; assay type: biochemical
# [3] = tested on: FPGS; details: addition of only one additional glutamic acid; cited from earlier work
# [4] = tested on: hFPGS, from CCRF-CEM cells; details: at concentrations up to 1045 μM; cited from earlier work
# human TS, sequence (P04818 whole entry): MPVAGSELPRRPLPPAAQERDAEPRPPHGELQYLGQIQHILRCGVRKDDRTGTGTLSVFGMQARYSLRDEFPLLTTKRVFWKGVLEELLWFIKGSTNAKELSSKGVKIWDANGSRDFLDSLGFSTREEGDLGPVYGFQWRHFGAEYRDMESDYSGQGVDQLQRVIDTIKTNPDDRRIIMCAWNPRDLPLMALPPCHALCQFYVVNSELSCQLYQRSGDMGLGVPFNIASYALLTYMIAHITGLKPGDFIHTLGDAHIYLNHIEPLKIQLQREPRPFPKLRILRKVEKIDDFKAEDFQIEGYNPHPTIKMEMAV
smiles,measurement,setting,value
"Cc1nc2sc3cccc(CNc4ccc(C(=O)N[C@@H](CCC(=O)O)C(=O)O)cc4)c3c2c(=O)[nH]1 [Compound 4, N-(4-{[(2-methyl-4-oxo-3,4-dihydro[1]benzothieno[2,3-d]pyrimidin-5-yl)methyl]amino}benzoyl)-L-glutamic acid]",activity against DHFR in words,[1],inactive
"Nc1nc2sc3cccc(CNc4ccc5c(c4)CN([C@@H](CCC(=O)O)C(=O)O)C5=O)c3c2c(=O)[nH]1 [Compound 7, (2S)-2-(5-{[(2-Amino-4-oxo-3,4-dihydro[1]benzothieno[2,3-d]pyrimidin-5-yl)methyl]amino}-1-oxo-1,3-dihydro-2H-isoindol-2-yl)pentanedioic acid]",potency against hTS relative to compound 1 (more potent),[2]; hTS,2 fold
same,potency relative to 6,"[2]; rigid versus flexible side chain, 2-amino",twice as potent
same,potency against hDHFR relative to MTX (less potent),[1],about 5 times
Cc1nc2ccc3ccc(CNc4ccc5c(c4)CN([C@@H](CCC(=O)O)C(=O)O)C5=O)cc3c2c(=O)[nH]1 [Compound 2],substrate activity for FPGS,[3],excellent substrate
"Nc1nc2sc3cccc(CNc4ccc(C(=O)N[C@@H](CCC(=O)O)C(=O)O)cc4)c3c2c(=O)[nH]1 [Compound 6, N-(4-{[(2-amino-4-oxo-3,4-dihydro[1]benzothieno[2,3-d]pyrimidin-5-yl)methyl]amino}benzoyl)-L-glutamic acid]",potency against hDHFR relative to MTX (less potent),[1],about 5 times
"Cc1[nH]c2nc(N)[nH]c(=O)c2c1Sc1ccc(C(=O)N[C@@H](CCC(=O)O)C(=O)O)cc1 [Compound 3, N-{4-[(2-amino-6-methyl-4-oxo-4,7-dihydro-3H-pyrrolo[2,3-d]pyrimidin-5-yl)thio]benzoyl}-L-glutamic acid]",substrate activity for hFPGS,[4],not a substrate
"Cc1nc2sc3cccc(CNc4ccc5c(c4)CN([C@@H](CCC(=O)O)C(=O)O)C5=O)c3c2c(=O)[nH]1 [Compound 5, (2S)-2-(5-{[(2-methyl-4-oxo-3,4-dihydro[1]benzothieno[2,3-d]pyrimidin-5-yl)methyl]amino}-1-oxo-1,3-dihydro-2H-isoindol-2-yl)pentanedioic acid]",potency against hTS relative to 4 (less potent),"[2]; hTS, rigid versus flexible side chain, 2-methyl",3 fold
same,activity against DHFR in words,[1],inactive
